From paper PMC4696493 (RSC advances, 2014)
Values after ≈ are worked out from the molar mass of the structure shown. Read-outs that look alike come from different tables or passages of the source. No end group written: not given here.

Experiments:
[1] = test system: Bacillus subtilis PY79
[2] = test system: E. coli K12
[3] = biological target: G-actin (Oryctolagus cuniculus, UniProt P68135); assay: Surface plasmon resonance, actin binding; parameters: species or system rabbit

Compound | MIC ([1]; measured with B. subtilis PY79, LB, 37 °C) [µM] | MIC ([2]; E. coli K12, 100 mM NaCl, tryptic soy broth (TSB)) [µM] | MIC ([2]; E. coli K12, no salt, tryptic soy broth (TSB)) [µM] | Kd [3] [µM] | MIC ([1]; PY79) [µM] | MIC ([2]; K12) [µM]
CC[C@H](C)[C@H](NC(=O)[C@H](CCCCN)NC(=O)[C@H](CCC(=O)O)NC(=O)[C@H](CCCCN)NC(=O)[C@H](CO)NC(=O)[C@H](CCCCN)NC(=O)[C@H](CCCNC(=N)N)NC(=O)[C@H](Cc1ccccc1)NC(=O)[C@H](Cc1ccccc1)NC(=O)[C@H](CC(=O)O)NC(=O)CNC(=O)[C@H](CC(C)C)NC(=O)[C@@H](N)CC(C)C)C(=O)NCC(=O)N[C@@H](CCCCN)C(=O)N[C@@H](CCC(=O)O)C(=O)N[C@@H](Cc1ccccc1)C(=O)N[C@@H](CCCCN)C(=O)N[C@@H](CCCNC(=N)N)C(=O)N[C@H](C(=O)N[C@H](C(=O)N[C@@H](CCC(N)=O)C(=O)N[C@@H](CCCNC(=N)N)C(=O)N[C@H](C(=O)N[C@@H](CCCCN)C(=O)N[C@@H](CC(=O)O)C(=O)N[C@@H](Cc1ccccc1)C(=O)N[C@@H](CC(C)C)C(=O)N[C@@H](CCCNC(=N)N)C(=O)N[C@@H](CC(N)=O)C(=O)N[C@@H](CC(C)C)C(=O)N[C@H](C(=O)N1CCC[C@H]1C(=O)N[C@@H](CCCNC(=N)N)C(=O)N[C@H](C(=O)N[C@@H](CCC(=O)O)C(=O)N[C@@H](CO)C(=O)O)[C@@H](C)O)C(C)C)[C@@H](C)CC)C(C)C)[C@@H](C)CC [LL-37, reference compound] | 1.1 (≈ 4.94 µg/mL) | 10 (≈ 44.9 µg/mL) | 10 |  |  | 
FKRIVQRIKDFLR-NH2 [FK-13] |  |  |  | 18.6 | 3.3 | 
KRIVQRIKDF-NH2 [KR-10] |  |  |  | 28.4 |  | >160
KRIVQRIKDFLR-NH2 [KR-12] |  |  |  | 11.8 | 6.6 | 
